This is an account of results in patent US9802899B2, “Heterocyclic compounds as pesticides” (BAYER CROPSCIENCE AG, priority 2012, dated 2017).

What is called chromatographic logP is lipophilicity estimated from chromatographic retention. The term log P denotes a log measure of how a compound divides between an organic and an aqueous phase. Read a high log P as higher lipophilicity.

The first data set can be described thus: Determination of the log P values by HPLC (formic acid method). Format: physicochemical. To be noted: reversed-phase HPLC column (C 18), reversed-phase column (C 18), acidic range (pH 3.4), 55° C. Here is the method:
1) Description of Method for Determination of the Log P Values (Formic Acid Method)
Eluents for determination in the acidic range (pH 3.4):
Eluent A: acetonitrile+1 ml of formic acid/liter. Eluent B: water+0.9 ml of formic acid/liter.
The lambda max values were determined in the maxima of the chromatographic signals using the UV spectra from 200 nm to 400 nm.
`Nc1nn(-c2ncc(F)cc2F)c2ccc(F)cc12` [1-(3,5-Difluoropyridin-2-yl)-5-fluoro-1H-indazole-3-amine]: the chromatographic logP is 2.09.

The compound `Cc1cccc(C)c1-n1ccc(N)n1` [1-(2,6-Dimethylphenyl)-1H-pyrazole-3-amine] yielded a chromatographic logP of 0.62. The compound `Nc1ccn(-c2cccc(Cl)c2F)n1` [1-(3-Chloro-2-fluorophenyl)-1H-pyrazole-3-amine] showed a chromatographic logP of 1.9. Regarding `Nc1ccn(-c2cncc(F)n2)n1` [1-(6-Fluoropyrazin-2-yl)-1H-pyrazole-3-amine], the chromatographic logP worked out at 0.9. In turn, `Nc1ccn(-c2cccnc2Cl)n1` [1-(2-Chloropyridin-3-yl)-1H-pyrazole-3-amine] came in with a chromatographic logP of 0.62.

Compound `Nc1cc(F)c(-n2ccc(NC(=O)c3ccccc3C(F)(F)F)n2)c(F)c1` [Compound I-1-227, N-[1-(4-Amino-2,6-difluorophenyl)-1H-pyrazol-3-yl]-2-(trifluoromethyl)benzamide] displayed a chromatographic logP of 2.32. Still for that read-out and setting: under `Cc1nc(-n2ccc(N)n2)c(F)cc1F` [1-(3,5-Difluoro-6-methylpyridin-2-yl)-1H-pyrazole-3-amine] stands 1.25.

Still in this data set, the particulars now being: reversed-phase column (C 18), acidic range (pH 3.4), 55° C.
As for `O=C(Nc1ccn(-c2ncccn2)n1)c1ccccc1Br` [Compound I-1-168], the “log P” value is on record as 1.72. Take `O=C(Nc1ccn(-c2ncccc2Cl)n1)c1ccsc1I` [Compound I-1-566]: the “log P” value was 2.46. `CN(C(=O)c1ccccc1C(F)(F)F)c1ccn(-c2c(F)cccc2F)n1` [Compound I-1-253]: the “log P” value was 3.08. For `C=CCN(C(=O)c1ccccc1C(F)(F)F)c1ccn(-c2c(F)cccc2F)n1` [Compound I-1-255], the “log P” value was determined as 3.44.

As for `O=C(Nc1cnn(-c2ncccc2Cl)n1)c1c(F)cccc1C(F)(F)F` [Compound I-2-57], the “log P” value was 2.48.

Regarding `Cc1ccc(-n2ccc(NC(=O)c3ccccc3Cl)n2)c(Cl)c1` [Compound I-1-339], the “log P” value amounted to 3.20. In the case of `Cc1ccccc1C(=O)Nc1ccn(-c2ncc(F)cc2F)n1` [Compound I-1-499], the “log P” value came out at 2.36. Consider `O=C(Nc1ccn(-c2c(F)cccc2F)n1)c1ccnn1C(F)F` [Compound I-1-111], for which the “log P” value is 2.40. Consider `O=C(Nc1ccn(-c2nccnc2F)n1)c1ncccc1C(F)(F)F` [Compound I-1-178], for which the “log P” value was 1.77.

Consider `CCN(C(=O)c1ccccc1C(F)(F)F)c1ccn(-c2ncc(F)cc2F)n1` [Compound I-1-468], for which the “log P” value was determined as 3.23.

In the case of `O=C(Nc1ccn(-c2ncc(F)cc2F)n1)c1ncncc1Cl` [Compound I-1-545], the “log P” value came to 1.92. `Nc1cnn(-c2c(F)cccc2F)n1` [Ex. 21-IX, 2-(2,6-Difluorophenyl)-2H-1,2,3-triazole-4-amine] yielded a chromatographic logP of 1.16.

On to `CSc1ncccc1C(=O)Nc1ccn(-c2c(F)cccc2F)n1` [Compound I-1-249], for which the “log P” value stood at 2.38.

For the compound `COc1ccccc1C(=O)Nc1ccn(-c2ncc(F)cc2F)n1` [Compound I-1-496], the “log P” value stood at 2.55. Turning to `O=C(Nc1ccn(-c2ccccc2C(F)(F)F)n1)c1ccnn1C(F)F` [Compound I-1-7], the “log P” value is listed as 3.05. As for `Cc1nc(-n2ccc(NC(=O)c3ccccc3C(F)(F)F)n2)c(F)cc1F` [Compound I-1-439], the “log P” value was 2.85. As for `O=C(Nc1ccn(-c2c(F)cccc2F)c1)c1c(F)cccc1F` [Compound I-3-2], the “log P” value amounted to 2.68.

As to `O=C(Nc1ccn(-c2ncccc2Br)n1)c1c(F)cccc1F` [Compound I-1-551], the “log P” value turned out to be 2.13. On to `O=C(Nc1ccn(-c2ccccc2[N+](=O)[O-])n1)c1ccccc1Br` [Compound I-1-418], for which the “log P” value came to 2.50. Take `O=C(Nc1nn(-c2ncccc2Cl)nc1Cl)c1ccccc1I` [Compound I-2-60]: the “log P” value amounted to 2.57. The log P values of the last two compounds are within 0.2 log units of each other. Turning to `Cn1nc(C(F)(F)F)c(C(=O)Nc2ccn(-c3ccccc3Br)n2)c1F` [Compound I-1-59], the “log P” value was found to be 3.00. Consider `O=C(Nc1ccn(-c2ccccc2Cl)n1)c1cccnc1I` [Compound I-1-369], for which the “log P” value is 2.27. On to `O=C(Nc1cnn(-c2ccc(C(F)(F)F)cn2)n1)c1ccccc1C(F)(F)F` [Compound I-2-42], for which the “log P” value is reported as 3.02. Turning to `O=C(Nc1ccn(-c2cccc(F)c2F)n1)c1ccccc1C(F)(F)F` [Compound I-1-64], the “log P” value was 3.02. On to `CCCc1c(Cl)c(C(=O)Nc2ccn(-c3ncc(F)cc3F)n2)nn1C` [Compound I-1-532], for which the “log P” value stood at 3.09. The log P values of the last two compounds are within 0.2 log units of each other. Consider `CCCn1ncc(I)c1C(=O)Nc1ccn(-c2ncc(F)cc2F)n1` [Compound I-1-541], for which the “log P” value is recorded as 2.93.

Consider `Cc1ccccc1C(=O)Nc1ccn(-c2ccccc2Cl)n1` [Compound I-1-11], for which the “log P” value is 2.86.

In the case of `O=C(Nc1cnn(-c2ncc(F)cc2F)n1)c1ccsc1I` [Compound I-2-72], the “log P” value amounted to 2.44. With `Cn1cc(C(=O)Nc2ccn(-c3c(F)cccc3F)n2)c(I)n1` [Compound I-1-108], the “log P” value is 2.03. Still for that read-out and setting: under `CCc1nnccc1C(=O)Nc1ccn(-c2c(F)cccc2F)n1` [Compound I-1-98] stands 1.73. `Cc1ccc(C#N)c(-n2ccc(NC(=O)c3ccccc3C(F)(F)F)n2)n1` [Compound I-1-572]: the “log P” value is given as 2.92. With `Cc1ccsc1C(=O)Nc1ccn(-c2ncc(F)cc2F)n1` [Compound I-1-510], the “log P” value is given as 2.38.

Consider `N#Cc1c(F)cccc1-n1ccc(NC(=O)c2c(F)cccc2C(F)(F)F)n1` [Compound I-1-623], for which the “log P” value was 2.68.

In the case of `Cn1cnnc1C(=O)Nc1ccn(-c2c(F)cccc2F)n1` [Compound I-1-328], the “log P” value was 1.51. The same measure, in the same setting: for `O=C(Nc1ccn(-c2c(F)cccc2F)n1)c1c(F)cccc1C(F)(F)F` [Compound I-1-276] the value was 2.72; for `O=C(Nc1cnn(-c2ncccc2F)n1)c1ccccc1Br` [Compound I-2-46], 2.04; for `O=C(Nc1cnn(-c2ncccc2F)n1)c1ccccc1Cl` [Compound I-2-48], 1.99.

As for `O=C(Nc1nn(-c2ncccc2Cl)nc1Cl)c1ccccc1C(F)(F)F` [Compound I-2-11], the “log P” value was 2.60. Take `Cc1nn(C)c(C(=O)Nc2ccn(-c3c(F)cccc3F)n2)c1Cl` [Compound I-1-307]: the “log P” value was found to be 2.78. The log P values of the last two compounds are within 0.2 log units of each other.

On to `Cc1nn(C)c(C(=O)Nc2ccn(-c3c(F)cccc3F)n2)c1F` [Compound I-1-320], for which the “log P” value is reported as 2.20. In the case of `O=C(Nc1ccn(-c2ncc(F)cc2F)n1)c1c(Cl)cccc1Cl` [Compound I-1-479], the “log P” value amounted to 2.51.

Consider `O=C(Nc1ccn(-c2ccc(Cl)cc2Cl)n1)c1ccccc1Br` [Compound I-1-199], for which the “log P” value turned out to be 3.44.

As for `CCn1nc(C)c(Br)c1C(=O)Nc1ccn(-c2ncc(F)cc2F)n1` [Compound I-1-519], the “log P” value is listed as 2.93. As for `N#Cc1cn(-c2ccccc2Cl)nc1NC(=O)c1ccccc1C(F)(F)F` [Compound I-1-346], the “log P” value is 2.53.

Consider `CS(=O)(=O)c1ccccc1-n1ccc(NC(=O)c2ccccc2Cl)n1` [Compound I-1-126], for which the “log P” value amounted to 1.96. The same measure, in the same setting: for `O=C(Nc1nn(-c2ccccc2Cl)cc1I)c1ccccc1Cl` [Compound I-1-30] the value was 3.01. For the compound `O=C(Nc1ccn(-c2nc(F)c(F)cc2F)n1)c1ccccc1Cl` [Compound I-1-163], the “log P” value is on record as 2.64. Same read-out and setting: under `O=C(Nc1ccn(-c2ncc(F)cc2F)n1)c1c(F)cccc1Br` [Compound I-1-637] stands 2.50. In the case of `O=C(NC1=NN(c2c(F)cccc2F)CC1)c1c(F)cccc1F` [Compound I-4-3], the “log P” value is reported as 2.59. On to `O=C(Nc1cnn(-c2ncc(F)cc2F)n1)c1cccnc1C(F)(F)F` [Compound I-2-67], for which the lipophilicity (log P) is 2.00. Turning to `O=C(Nc1ccn(-c2c(F)cccc2F)n1)c1cscc1Br` [Compound I-1-305], the “log P” value came out at 2.61. On to `Cn1nc(C(F)(F)F)c(C(=O)Nc2ccn(-c3ccccc3Cl)n2)c1F` [Compound I-1-383], for which the lipophilicity (log P) stood at 2.86. In the case of `Cc1noc(C(F)F)c1C(=O)Nc1ccn(-c2ncc(F)cc2F)n1` [Compound I-1-157], the “log P” value was determined as 2.33. The same measure, in the same setting: for `O=C(Nc1ccn(-c2ccccc2Br)n1)c1ncccc1C(F)(F)F` [Compound I-1-54] the value was 2.99.

Turning to `O=C(Nc1ccn(-c2c(F)cccc2F)n1)c1c(F)cccc1F` [Compound I-1-84], the “log P” value is on record as 2.42. Regarding `O=C(Nc1ccn(-c2c(F)cccc2F)n1)c1c(F)cccc1Br` [Compound I-1-613], the “log P” value is recorded as 2.72. Turning to `O=C(Nc1ccn(-c2ccccc2C(F)(F)F)n1)c1ccccc1Cl` [Compound I-1-4], the log partition coefficient (log P) is listed as 2.92. Turning to `CC1=C(C(=O)Nc2ccn(-c3c(F)cccc3F)n2)CCCO1` [Compound I-1-333], the “log P” value is listed as 2.30. Same read-out and setting: under `O=C(Nc1ccn(-c2c(F)cccc2F)n1)c1cc(F)ccc1C(F)(F)F` [Compound I-1-331] stands 2.80; under `O=C(Nc1cnn(-c2c(F)cccc2F)n1)c1cccnc1Br` [Compound I-2-37], 2.09. Take `O=C(Nc1ccn(-c2cc(F)cnc2F)n1)c1ccccc1C(F)(F)F` [Compound I-1-224]: the “log P” value was determined as 2.72.

For `O=C(Nc1ccn(-c2ncc(F)cc2F)n1)c1cc(F)ccc1C(F)(F)F` [Compound I-1-506], the “log P” value is listed as 2.65.

Turning to `O=C(Nc1ccn(-c2ccc(Cl)cc2Cl)n1)c1ccccc1C(F)(F)F` [Compound I-1-198], the “log P” value is given as 3.25.

With `O=C(Nc1ccn(-c2ncc(F)cc2F)n1)c1ccccc1O` [Compound I-1-148], the “log P” value stood at 2.48. `Cc1nn(C)c(C(=O)Nc2ccn(-c3c(F)cccc3F)n2)c1C(F)F` [Compound I-1-294]: the “log P” value amounted to 2.34.
